Test results as given in paper PMC9081329, “Pharmacokinetics, Mass Balance, Excretion, and Tissue Distribution of Plasmalogen Precursor PPI-1011” (Frontiers in Cell and Developmental Biology, 2022).

Assay: Single dose tissue distribution study (QWBA, LSC of blood and plasma)
Type: in vivo, Sprague-Dawley rats
Procedure: Six male rats were administered a single oral dose of [^14C]PPI-1011 at 100 mg/kg (200 μCi/kg) and one rat was sacrificed at each of the following time points after the administration of the dose: 8, 12, 18, 24, 48, or 168 h. Terminal blood was collected by cardiac puncture directly into tubes with K2EDTA, an aliquot was stored at 4°C until LSC was performed for radioactivity, while the remaining blood was processed to plasma and stored at −20°C until LSC. Following blood collection, the carcasses were frozen in a cold bath with hexanes and dry ice for at least 8 min and then dried and stored at −70°C for at least 5 h. The carcasses were transferred to a −20°C freezer for at least 12 h before embedding.
QWBA was used to determine radioactivity concentrations in the caecum (contents and mucosa), large intestine (contents and mucosa), small intestine (contents and mucosa), stomach (contents and mucosa), brain, choroid plexus, spinal cord, bone, skin, adrenal gland, pineal body, pituitary gland, thyroid gland, liver, kidney (cortex, medulla and whole kidney), urinary bladder (contents and wall), brown fat, white fat, eye (lens, uveal tract and whole eye), epididymis, prostate gland, testis, ovary, uterus, lung, exorbital lachrymal gland, Harderian gland, pancreas, salivary gland, skeletal muscle, myocardium, cardiac blood, bone marrow, lymph node, spleen, and thymus. As well, LSC was used to determine the total radioactivity in the whole blood and plasma.
The whole-body cryosectioning technique described by ([Ullberg, 1977]) was the basis for embedding and cryosectioning the rats assigned to this study. Each frozen carcass was shaved, and then the limbs and tail were removed prior to embedding. Chilled (4°C) 3% CMC (low viscosity) was utilized to provide a firm support of reinforced ice around each rat and for a secure attachment to the microtome stage. Upon thorough freezing of the embedding medium surrounding each rat, the frozen CMC block was removed from the freezing bath and four 3/8 inch holes were drilled into the block. One cryosection quality control standard (CQCS) was prepared with a known amount of radioactivity and at least 1 ml aliquots were added to each of the four drilled holes. CQCS data were utilized to evaluate the overall performance of the QWBA assay.
Each frozen rat was sagittally trimmed (50–100 μm) at −20°C until exposure of a few target tissues employing a Leica Cryomacrocut heavy-duty microtome (Leica Microsystems Inc.,). Disposable stainless steel Feather type H45L knives (Feather Safety Razor Co., Ltd.) were utilized for trimming and sectioning each frozen rat. Several thinner sections (50 μm) were discarded prior to obtaining multiple 50 μm sections at various cryosectioning levels for QWBA analysis. Upon the collection of at least 60 target tissues in multiple cryosectioning levels, the cryosections were kept in the Cryomacrocut cryochamber for a minimum of 18 h for dehydration depending upon the number of cryosections within the cryochamber. After dehydration was complete, the cryosections were transferred to ambient temperature for processing. Mounted whole-body cryosections and a set of 15 standards were sandwiched between a standard phosphor screen and an exposure cassette. All cryosections were exposed to the phosphor screen for 4-days in a cabinet protected with lead prior to scanning using a Typhoon PhosphorImager (Cytiva). MCID™ Analysis software (InterFocus Ltd.) was utilized to generate a calibration curve of the STD nominal concentrations (nCi/g) versus PhosphorImager response (counts/μm^2 minus background) by weighted (1/x) linear regression analysis ([Potchoiba et al., 1995]; [Potchoiba et al., 1998]). The linear regression curve was then utilized to determine the concentration (nCi/g) of total radioactivity in whole-body tissues and blood. Radioactivity concentrations were expressed as μg Eq/g based on the specific activity of the compound in the final dose formulations. […]

[1] = 12 h post single oral 100 mg/kg

SMILES: CC/C=C\C/C=C\C/C=C\C/C=C\C/C=C\C/C=C\CCC(=O)O[C@H](CO[14CH2]CCCCCCCCCCCCCCC)COC(=O)CCCCC1CCSS1 (stereo partly shown) [[^14C]PPI-1011]
- Blood:plasma concentration ratio (168 HPD, single dose): 2.96
- Radioactivity concentration, Adipose - Brown (8 h post single oral 100 mg/kg): 171 μg equivalents/g
- Radioactivity concentration, Adipose - Brown (Vessel Wall) (8 h post single oral 100 mg/kg): 301 μg equivalents/g
- Radioactivity concentration, Adipose - Subcutaneous (8 h post single oral 100 mg/kg): 74.0 μg equivalents/g
- Radioactivity concentration, Adipose - Visceral (8 h post single oral 100 mg/kg): 83.1 μg equivalents/g
- Radioactivity concentration, Adrenal Gland (8 h post single oral 100 mg/kg): 195 μg equivalents/g
- Radioactivity concentration, Bladder Wall (8 h post single oral 100 mg/kg): 86.0 μg equivalents/g
- Radioactivity concentration, Blood - QWBA (8 h post single oral 100 mg/kg): 35.4 μg equivalents/g
- Radioactivity concentration, Bone Marrow (8 h post single oral 100 mg/kg): 23.5 μg equivalents/g
- Radioactivity concentration, Bone Surface (8 h post single oral 100 mg/kg): 2.30 μg equivalents/g
- Radioactivity concentration, Cerebellum (8 h post single oral 100 mg/kg): 2.70 μg equivalents/g
- Radioactivity concentration, Cerebrum (8 h post single oral 100 mg/kg): 2.39 μg equivalents/g
- Radioactivity concentration, Choroid Plexus (8 h post single oral 100 mg/kg): 14.9 μg equivalents/g
- Radioactivity concentration, Colliculus (8 h post single oral 100 mg/kg): 3.50 μg equivalents/g
- Radioactivity concentration, Diaphragm (8 h post single oral 100 mg/kg): 55.6 μg equivalents/g
- Radioactivity concentration, Epididymis (8 h post single oral 100 mg/kg): 39.8 μg equivalents/g
- Radioactivity concentration, Esophagus (8 h post single oral 100 mg/kg): 17.4 μg equivalents/g
- Radioactivity concentration, Exorbital Lacrimal Gland (8 h post single oral 100 mg/kg): 28.7 μg equivalents/g
- Radioactivity concentration, Gastric Mucosa (8 h post single oral 100 mg/kg): 91.2 μg equivalents/g
- Radioactivity concentration, Harderian Gland (8 h post single oral 100 mg/kg): 14.4 μg equivalents/g
- Radioactivity concentration, Intra-Orbital Lacrimal Gland (8 h post single oral 100 mg/kg): 10.4 μg equivalents/g
- Radioactivity concentration, Kidney (8 h post single oral 100 mg/kg): 42.9 μg equivalents/g
- Radioactivity concentration, Large Intestines (8 h post single oral 100 mg/kg): 12.5 μg equivalents/g
- Radioactivity concentration, Liver (8 h post single oral 100 mg/kg): 313 μg equivalents/g
- Radioactivity concentration, Lung (8 h post single oral 100 mg/kg): 74.0 μg equivalents/g
- Radioactivity concentration, Lymph Node (8 h post single oral 100 mg/kg): 22.7 μg equivalents/g
- Radioactivity concentration, Medulla Oblongata (8 h post single oral 100 mg/kg): 2.40 μg equivalents/g
- Radioactivity concentration, Muscle (8 h post single oral 100 mg/kg): 10.3 μg equivalents/g
- Radioactivity concentration, Myocardium (8 h post single oral 100 mg/kg): 92.0 μg equivalents/g
- Radioactivity concentration, Nasal Turbinates (8 h post single oral 100 mg/kg): 16.0 μg equivalents/g
- Radioactivity concentration, Ocular - Uveal Tract (8 h post single oral 100 mg/kg): 6.97 μg equivalents/g
- Radioactivity concentration, Ocular - Whole Eye (8 h post single oral 100 mg/kg): 1.83 μg equivalents/g
- Radioactivity concentration, Olfactory Bulb (8 h post single oral 100 mg/kg): 2.16 μg equivalents/g
- Radioactivity concentration, Pancreas (8 h post single oral 100 mg/kg): 66.3 μg equivalents/g
- Radioactivity concentration, Parotid Gland (8 h post single oral 100 mg/kg): 39.1 μg equivalents/g
- Radioactivity concentration, Pineal Gland (8 h post single oral 100 mg/kg): 11.9 μg equivalents/g
- Radioactivity concentration, Pituitary Gland (8 h post single oral 100 mg/kg): 21.2 μg equivalents/g
- Radioactivity concentration, Preputial Gland (8 h post single oral 100 mg/kg): 33.6 μg equivalents/g
- Radioactivity concentration, Prostate (8 h post single oral 100 mg/kg): 49.6 μg equivalents/g
- Radioactivity concentration, Renal Cortex (8 h post single oral 100 mg/kg): 41.4 μg equivalents/g
- Radioactivity concentration, Renal Medulla (8 h post single oral 100 mg/kg): 51.0 μg equivalents/g
- Radioactivity concentration, Salivary Gland (8 h post single oral 100 mg/kg): 53.3 μg equivalents/g
- Radioactivity concentration, Seminal Vesicles (8 h post single oral 100 mg/kg): 12.8 μg equivalents/g
- Radioactivity concentration, Skin - Non-Pigmented (8 h post single oral 100 mg/kg): 15.0 μg equivalents/g
- Radioactivity concentration, Small Intestines (8 h post single oral 100 mg/kg): 609 μg equivalents/g
- Radioactivity concentration, Spinal Cord (8 h post single oral 100 mg/kg): 2.71 μg equivalents/g
- Radioactivity concentration, Spleen (8 h post single oral 100 mg/kg): 105 μg equivalents/g
- Radioactivity concentration, Stomach (8 h post single oral 100 mg/kg): 22.6 μg equivalents/g
- Radioactivity concentration, Testis (8 h post single oral 100 mg/kg): 2.65 μg equivalents/g
- Radioactivity concentration, Thalamus (8 h post single oral 100 mg/kg): 2.27 μg equivalents/g
- Radioactivity concentration, Thymus (8 h post single oral 100 mg/kg): 10.7 μg equivalents/g
- Radioactivity concentration, Thyroid (8 h post single oral 100 mg/kg): 49.9 μg equivalents/g
- Radioactivity concentration, Whole Brain (8 h post single oral 100 mg/kg): 2.60 μg equivalents/g
- Radioactivity concentration, Adipose - Brown [1]: 426 μg equivalents/g
- Radioactivity concentration, Adipose - Brown (Vessel Wall) [1]: 383 μg equivalents/g
- Radioactivity concentration, Adipose - Subcutaneous [1]: 242 μg equivalents/g
- Radioactivity concentration, Adipose - Visceral [1]: 170 μg equivalents/g
- Radioactivity concentration, Adrenal Gland [1]: 367 μg equivalents/g
- Radioactivity concentration, Bladder Wall [1]: 19.3 μg equivalents/g
- Radioactivity concentration, Blood - QWBA [1]: 16.4 μg equivalents/g
- Radioactivity concentration, Bone Marrow [1]: 23.0 μg equivalents/g
- Radioactivity concentration, Bone Surface [1]: 1.15 μg equivalents/g
- Radioactivity concentration, Cecum [1]: 450 μg equivalents/g
- Radioactivity concentration, Cerebellum [1]: 2.69 μg equivalents/g
- Radioactivity concentration, Cerebrum [1]: 2.22 μg equivalents/g
- Radioactivity concentration, Choroid Plexus [1]: 17.1 μg equivalents/g
- Radioactivity concentration, Colliculus [1]: 3.03 μg equivalents/g
- Radioactivity concentration, Diaphragm [1]: 59.9 μg equivalents/g
- Radioactivity concentration, Epididymis [1]: 70.9 μg equivalents/g
- Radioactivity concentration, Esophagus [1]: 16.9 μg equivalents/g
- Radioactivity concentration, Exorbital Lacrimal Gland [1]: 34.5 μg equivalents/g
- Radioactivity concentration, Gastric Mucosa [1]: 67.8 μg equivalents/g
- Radioactivity concentration, Harderian Gland [1]: 10.8 μg equivalents/g
- Radioactivity concentration, Intra-Orbital Lacrimal Gland [1]: 8.89 μg equivalents/g
- Radioactivity concentration, Kidney [1]: 45.3 μg equivalents/g
- Radioactivity concentration, Large Intestines [1]: 209 μg equivalents/g
- Radioactivity concentration, Liver [1]: 269 μg equivalents/g
- Radioactivity concentration, Lung [1]: 51.9 μg equivalents/g
- Radioactivity concentration, Lymph Node [1]: 22.6 μg equivalents/g
- Radioactivity concentration, Medulla Oblongata [1]: 2.44 μg equivalents/g
- Radioactivity concentration, Muscle [1]: 12.6 μg equivalents/g
- Radioactivity concentration, Myocardium [1]: 72.6 μg equivalents/g
- Radioactivity concentration, Nasal Turbinates [1]: 10.6 μg equivalents/g
- Radioactivity concentration, Ocular - Uveal Tract [1]: 6.57 μg equivalents/g
- Radioactivity concentration, Ocular - Whole Eye [1]: 2.03 μg equivalents/g
